One data set concerns HeLa cells. Put plainly: Cytotoxicity assay (thiazolyl blue tetrazolium bromide), HeLa. It is filed as cell-based, human. To be noted: even at 100 μM, 24 h. The procedure: (§1) HEK293 and HeLa cells were purchased from ATCC, and HT22 cells were purchased from Sigma-Aldrich. They were cultured in Dulbecco's modified Eagle's medium (Thermo Fisher Scientific, 11965092) with 10% fetal bovine serum (Thermo Fisher Scientific, 26140079) and 1% penicillin-streptomycin at 37° C. in a humidified incubator with 5% CO2. After 1 day of cell culture, cells were seeded onto 96-well plates with a density of 5000 cells in each well and cultured for another 24 h. Then, HMPQ with different concentrations was added and treated for 24 h. After incubating with 20 μL of thiazolyl blue tetrazolium bromide (5 mg/mL in PBS buffer; Sigma-Aldrich) for 4 h, supernatants were removed, and 100 μL of DMSO was added to dissolve formazan. After shaking for 5 min in darkness, a Multiskan FC microplate was used to measure absorbance at 570 nm.

The test system of a further data set is c-myc G4. Put plainly: CD spectroscopy of c-myc G4 with HMPQ. The data set is classed as binding. The procedure:
(§2) CD spectra of G4s with HMPQ were recorded on a Chirascan CD spectrometer at room temperature from 220 nm to 320 nm under liquid mode. A 1 mm-path-length quartz cuvette was used with a 400 μL sample. Each G4 sample was prepared at the same concentration of 15 μM. The compound was mixed with G4s at a molar ratio of 1:10. Each test was scanned three times, and the background of the buffer was subtracted.

The test system of a further data set is HEK293 cells. Put plainly: Cytotoxicity assay (thiazolyl blue tetrazolium bromide), HEK293. To be noted: even at 100 μM, 24 h. It is filed as cell-based, human. The procedure:
as §1

A further data set deals with c-kit1 G4. Put plainly: CD spectroscopy of c-kit1 G4 with HMPQ. It is filed as binding. The procedure: as §2
Data set [1] deals with c-kit2 (SEQ ID NO: 3) DNA G4. Put plainly: Photoluminescence test of HMPQ with c-kit2 G4 (turn-on, Stern-Volmer plot, LOD). It is filed as binding. The procedure:
Single DNA nucleotides were purchased from Integrated DNA Technologies. The DNA sample at 100 μM (single strands) was then re-annealed by heating to 95° C. for 15 min, followed by slow cooling to room temperature overnight in an annealing buffer of 70 mM KCl and 20 mM potassium phosphate (pH 7.0). The final NMR samples contained 0.1 mM DNA or RNA in 20 mM potassium phosphate buffer (pH 7.0) and 70 mM KCl.
The intriguing conformational change observed in HMPQ led to exceptional emission performance, prompting us to explore its application as a fluorescent probe. The inherent two-planar aromatic rings of HMPQ offer the potential for interaction with the guanine tetrad or conjugation with side chains of novel nucleic acid secondary structures, G4s^45,46. To evaluate the binding affinity of HMPQ, a series of photoluminescence tests was conducted using various G4 samples introduced with HMPQ (Table 5).
To delve deeper into the sensitivity of HMPQ as a fluorescent G4 probe, the PL spectra of HMPQ (0.15 mM) were obtained with varying concentrations of c-kit2, as illustrated in FIG. 5B. […] According to the equation for limit of detection (LOD), LOD=3 SB/m (SB=the standard deviation of the repeated 10 blank measurements, and m=the slope of the relative intensity over […]), it was calculated as 28.7 nM^49,50. […]

The nature of data set [2]: Absolute quantum yield of HMPQ in different states. It is filed as physicochemical. Conditions: for Quantum Yield (%): excitation 320 nm. The procedure:
Streptomyces chrestomyceticus BCC24770 was acquired from the Thailand Bioresource Research Centre. All oligonucleotides used were bought from Integrated DNA Technologies company (Singapore). NMR spectra were recorded on a 500 M or 800 M Varian spectrometer at 25° C. HRMS data were recorded on a Xevo G2-XS QTOF mass spectrometer from Water's. HPLC analysis or preparation was performed using a Waters HPLC system (Waters 2695 Separations Module; Milford, USA) and monitored under a Waters 2998 Photodiode Array Detector. Semi-preparative HPLC was performed using a Phenomenex Luna C18 column (250 mm×10 mm in size) and designed for a particle size of 5 μm. Single-crystal XRD data were collected on a Rigaku-Oxford Diffraction Supernova Dual Atlas diffractometer. Crystal photos were taken under Nikon ECLIPSE Ts2R fluorescence microscopes. CD spectra were collected using Chirascan Circular Dichroism (CD) Spectrometers. UV-vis absorption spectra were obtained under a Shimadzu UV-2600 spectrophotometer (medium scanning rate and quartz cuvettes of 2 cm path length). Photoluminescence spectra were recorded on an Edinburgh FS5 Spectrofluorometer. Absolute quantum yield was collected using an integrating sphere on a Hamamatsu Quantum Yield Spectrometer C11347 Quantaurus. All digital photographs were recorded on a Canon EOS 7D camera. A Leica SP8 confocal microscope was used for cell imaging.
After observing the strong emission of crystalline-state HMPQ, we studied its photophysical properties in a polymer matrix. HMPQ was dissolved and blended with the common polymer poly(methyl methacrylate) (PMMA)^39. A series of films was prepared by coating mixtures with varying weight percentages (wt %) of HMPQ onto a quartz substrate. The resulting films, containing different wt % of HMPQ, were analysed to measure their photoluminescence (PL) and quantum yield (QY) (FIGS. 3A-3D and 14, Table 2).

Data set [3] relates to immortalized mouse hippocampal neuronal cells HT22. Put plainly: Cytotoxicity assay (thiazolyl blue tetrazolium bromide), HT22. It is filed as cell-based. To be noted: even at 100 μM, 24 h. The procedure: as §1
The test system of the next data set is c-kit2 G4. Put plainly: CD spectroscopy of c-kit2 G4 with HMPQ. The data set is classed as binding. The procedure: as §2
In data set [4] the test system is regular double-stranded or single-stranded, or hairpin-structure nucleotides. Put plainly: Photoluminescence and NMR titration with non-G4 oligonucleotides. It is filed as binding. An excerpt: Conventional fluorescent probes rely on hydrophobic aromatic rings and π-conjugated chromophores^22. However, their tendency to aggregate in hydrophobic pockets upon binding to nucleic acid strands in aqueous environments often results in the quenching of emitted light. Conversely, AIEgens excel in aqueous media, evading aggregation-caused quenching. […] In embodiments, binding to G4s restricts the mobility of HMPQ molecules, leading to a significant enhancement in fluorescence intensity. CD spectra confirm that HMPQ maintains the original conformation of G4s and its high biocompatibility enables visualization of G4s within the cellular nucleus.
To verify whether the compounds interacted with G4 DNA, we performed NMR titration experiments by running 1D ^1H NMR spectra at 25° C. All compounds were dissolved in isotope-labelled d6-DMSO (from Sigma-Aldrich) at about 50 mM concentration as stock solutions. To avoid chemical shifts of G4 samples resulting from d6-DMSO addition, 10 μL of d6-DMSO was added into 500 μL of 0.1 mM G4 solution in the NMR buffer (20 mM potassium phosphate buffer and 70 mM KCl, pH 7.0, 10% D2O). Then, a 1D ^1H-NMR spectrum was obtained as a reference. […]
In addition to fluorescence spectroscopy tests, we performed NMR titration as another prevalent method for assessing binding affinity. […]

Another data set relates to G4s in HeLa cells. Put plainly: Confocal cell imaging, co-localization with G4-specific antibody BG4. The data set is classed as cell-based, human. The procedure:
HeLa cells were seeded onto a 12-well plate with coverslips at 37° C. and 5% CO2 for 1 day and incubated with HMPQ at 10 μM overnight. The next day, cells were fixed with 4% paraformaldehyde for 15 min at room temperature and then permeabilized with 0.2% Triton X-100 in PBS for another 10 min. G4-specific antibodies BG4 (Sigma-Aldrich, cat. no. MABE 1126) were added at 1:500 dilution for staining and incubated overnight at 4° C. Cells were washed three times with PBS and then incubated with secondary antibodies (Alexa 647 anti-rabbit for G4) at 1:1000 dilution for 1 h at room temperature. After washing the cells with PBS three times to remove excess secondary, the cells were incubated with DAPI for 5 min and washed with PBS once. The cells on slides were then air dried, mounted onto a Hydromount medium, and observed using a Leica SP8 confocal microscope.

Molecules are shown by their SMILES.

On to `CCC(=O)c1ccc(OC)c(-c2nc3ccccc3c(=O)[nH]2)c1O` [HMPQ, 2-(2-hydroxy-6-methoxy-3-propionylphenyl)quinazolin-4(3H)-one], for which the cytotoxicity result (in the data set with HeLa cells; in the data set on HEK293 cells; in data set [3]) was “no cytotoxicity” in each case. Moreover, the “effect on original G4 conformation (CD spectrum)” value in the data set with c-myc G4, in the data set on c-kit1 G4 and in the data set on c-kit2 G4 was “non-disruptive” in each case. The “fluorescence enhancement at 497 nm upon interaction with c-kit2” value in [1] (20 mM KH2PO4 buffer, 70 mM KCl, pH 7.0) is “around 300 fold”. Besides, the Stern-Volmer constant m in data set [1] (HMPQ 0.15 mM, c-kit2 0 μM to 50 μM) is 1.94e+06 M⁻¹. Besides, the QY in data set [2] (30 wt % film (HMPQ in PMMA)) is listed as 30.5%. For the same molecule, the “Quantum Yield (%)” value was 25.5% in data set [2] (Film, 1 wt. % HMPQ in PMMA); 27.9% in data set [2] (Film, 5 wt. % HMPQ in PMMA); 29.4% in data set [2] (Film, 10 wt. % HMPQ in PMMA); 30.5% in [2] (Film, 20 wt. % HMPQ in PMMA); 30.0% in data set [2] (Film, 40 wt. % HMPQ in PMMA); 27.1% in [2] (Film, 60 wt. % HMPQ in PMMA). The “Quantum Yield (%)” value stood at 23.0% in data set [2] (Film, 100 wt. % HMPQ); 6.7% in data set [2] (In DMSO Solution, 10^−5 M); 2.4% in data set [2] (In THF Solution, 10^−5 M); 3.9% in data set [2] (Solid Powder). For the same molecule, the “interaction with non-G4 nucleotides” value in [4] is “no interaction”. Besides, the “penetration of the cell nucleus” value in the data set with G4s in HeLa cells (BG4 as control) was “efficiently penetrated the cell nucleus”. The Overlap coefficient in the data set on G4s in HeLa cells (FIG. 6C legend) is on record as 0.943. Also, the “overlap coefficient with BG4” value with G4s in HeLa cells (HMPQ 10 μM overnight) amounted to 94.3%.

These data come from US20250250613A1, “DISCOVERY OF BACTERIAL AIEGEN THAT LIGHTS UP SPECIFIC G-QUADRUPLEXES” (Southern Marine Science and Engineering Guangdong …, priority 2024, published 2025).
